Data from US5089623A, “Certain imidate insecticides” (Imperial Chemical Industries Plc, priority 1990, dated 1992).

What was measured:
Type in all cases: in vivo
[1] = system: Housefly [Musca domestica]; assay: Housefly insecticidal test (HF); conditions: per 25 female houseflies, 48 hours
[2] = system: Tobacco Budworm [Heliothis virescens (Fabricius)] eggs; assay: Tobacco budworm egg test (TBW-E); conditions: percent in solution
[3] = system: Cabbage Looper [Trichoplusia ni (Hubner)]; assay: Cabbage looper test (CL); conditions: second-instar larvae, 3-5 days, percent in solution
[4] = system: Aster Leafhopper [Macrosteles fascifrens (Stal)]; assay: Aster leafhopper test (LH); conditions: adults/nymphs, 48 hours, percent in solution
[5] = system: Maize weevil [Sitophilus Zeamais (Motschulsky)]; assay: Maize weevil test (MW); conditions: adult weevils, treated corn seeds, 48 hours, percent in solution
Method in brief: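 Adult weevils (10) were placed with four corn seeds that had been dipped 2-3 s in compound dissolved in 50:50 acetone:water, then dried, and held at about 25° C. Mortality was scored at 48 h. LC50 was taken from dosage-mortality curves and expressed as percent compound in solution, from a 0.01% top concentration.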

| SMILES | LC50 HF [1] [µg] | LC50 TBW E [2] [%] | LC50 CL [3] [%] | LC50 LH [4] [%] | LC50 MW [5] [%] |
| --- | --- | --- | --- | --- | --- |
| CC(C)CC(=Nc1cc(Cl)cc(Cl)c1)OCc1cccc(Oc2ccccc2)c1 [Compound 10] | > 100 | > 0.1 | 0.01 | > 0.05 |  |
| CC(C)C(=Nc1cc(Cl)cc(Cl)c1)OCc1cccc(Oc2ccccc2)c1 [Compound 16] | 20 | 0.04 | 0.004 | 0.0005 |  |
| CC(C)C(=Nc1cc(Cl)c(Cl)c(Cl)c1)OCc1cccc(Oc2ccccc2)c1 [Compound 20] | 64 | < 0.1 | 0.0025 | 0.003 |  |
| Fc1ccc(N=C(OCc2cccc(Oc3ccccc3)c2)C(Cl)=C(Cl)Cl)cc1 [Compound 49] | > 100 | > 0.05 | 0.007 | > 0.05 |  |
| CC(C)C(=Nc1c(F)c(F)cc(F)c1F)OCc1cccc(Oc2ccccc2)c1 [Compound 57] | > 100 | 0.1 | 0.004 | 0.0005 |  |
| COc1ccc(OC)c(N=C(OCc2cccc(Oc3ccccc3)c2)C(C)C)c1 [Compound 69] | > 100 | > 0.1 | 0.09 | > 0.05 |  |
| CC(C)C(=Nc1ccc(OC(F)(F)F)cc1)OCc1cccc(Oc2ccccc2)c1 [Compound 70] | < 100 | 0.01 | < 0.1 | > 0.05 |  |
| CC(C)C(=Nc1ccc(C(F)(F)F)c(Cl)c1)OCc1cccc(Oc2ccccc2)c1 [Compound 83] | > 100 | > 0.1 | 0.007 | > 0.05 |  |
| Cc1ccc(N=C(OCc2cccc(Oc3ccccc3)c2)C(C)C)cc1Cl [Compound 90] | > 100 | 0.016 | > 0.1 | 0.001 |  |
| COc1c(Cl)cc(N=C(OCc2cccc(Oc3ccccc3)c2)C(C)C)cc1Cl [Compound 91] | 37 | > 0.01 | 0.002 | 0.003 |  |
| CC(C)C(=Nc1c(Cl)cc([N+](=O)[O-])cc1Cl)OCc1cccc(Oc2ccccc2)c1 [Compound 92] | > 100 | > 0.1 | 0.015 | > 0.05 |  |
| Clc1ccc(N=C(OCc2cccc(Oc3ccccc3)c2)C(Cl)Cl)c2ccccc12 [Compound 98] | > 100 | 0.1 | 0.016 | > 0.05 |  |
| Cc1c(Cl)cc(N=C(OCc2cccc(Oc3ccccc3)c2)C(C)C)cc1Cl [Compound 101] | 81 | > 0.1 | 0.0045 | 0.0008 |  |
| CCOC(=O)c1cc(N=C(OCc2cccc(Oc3ccccc3)c2)C(C)C)ccc1Cl [Compound 102] | > 100 | > 0.1 | 0.075 | > 0.05 |  |
| CC(C)(Cl)C(=Nc1ccc(C#N)c(Cl)c1)OCc1cccc(Oc2ccccc2)c1 [Compound 108] | 44 | > 0.1 | 0.002 | > 0.01 |  |
| CC(C)C(=Nc1c(F)cc(F)cc1Br)OCc1cccc(Oc2ccccc2)c1 [Compound 129] | > 100 | > 0.1 | 0.005 | 0.01 |  |
| CC(C)C(=Nc1ccc(Br)cc1)OCc1cccc(Oc2ccccc2)c1 [Compound 131] | 17 | > 0.1 | 0.0045 | 0.005 |  |
| CC(C)(C)C(=Nc1ccc(Br)cc1)OCc1cccc(Oc2ccccc2)c1 [Compound 135] | > 100 | > 0.1 | 0.004 | > 0.05 |  |
| CC(C)C(=Nc1ccc(I)cc1)OCc1cccc(Oc2ccccc2)c1 [Compound 137] | 18 | 0.04 | 0.003 | 0.008 |  |
| CCc1cccc(N=C(OCc2cccc(Oc3ccccc3)c2)C(C)C)c1 [Compound 154] | 25 | 0.1 | 0.004 | > 0.05 |  |
| CCc1ccc(N=C(OCc2cccc(Oc3ccc(F)cc3)c2)C(C)C)cc1 [Compound 159] | 25 | 0.08 | 0.001 | 0.0025 |  |
| CC(C)C(=Nc1ccc(Cl)c(C(F)(F)F)c1)OCc1cccc(Oc2ccccc2)n1 [Compound 555] | < 100 | > 0.1 | 0.002 |  | > 0.01 |
| CC(C)C(=Nc1ccc2c(c1)OC(F)(F)O2)OCc1cccc(Oc2ccccc2)n1 [Compound 556] | < 100 | 0.04 | 0.0007 |  | > 0.01 |
| CC(C)C(=Nc1cccc(Br)c1)OCc1cccc(Oc2ccc(Cl)cc2)n1 [Compound 557] | < 100 | > 0.1 | 0.0004 |  | > 0.01 |
| CC(C)C(=Nc1ccc(F)c(Br)c1)OCc1cccc(Oc2ccccc2)n1 [Compound 558] | < 100 | > 0.1 | 0.00045 |  | > 0.01 |
| CC(C)C(=Nc1ccc(F)c(F)c1)OCc1cccc(Oc2ccc(Cl)cc2)n1 [Compound 559] | < 100 | 0.017 | 0.00027 |  | > 0.01 |
| C=C(C)C(=Nc1ccc(C(F)(F)F)cc1)OCc1cccc(Oc2ccc(Cl)cc2)n1 [Compound 560] | < 100 | < 0.1 | 0.0015 |  | > 0.01 |
